From PubChem BioAssay AID179 (DTP/NCI, 2004)
Activity calls are given as the source filed them.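 How the source made its calls: active means compounds giving half or more protection of infected cells from virus-caused growth loss, again on retest; inactive means the rest.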

Test system: CEM cells HIV-1 protection, formazan growth assay
Assay: NCI AIDS Antiviral Assay
Settings: for IC50: measured here: growth of uninfected CEM cells
How it was run: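 Protection of CEM cells against HIV-1 was scored from cell growth (soluble formazan) across five concentrations, with parallel uninfected cells. Lack of protection may reflect toxicity.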

Row | SMILES | EC50 | IC50 | outcome
1 | CCCC(=O)c1c(NOC2OC(COC(C)=O)C(OC(C)=O)C(OC(C)=O)C2OC(C)=O)nc(OC)n(C)c1=O (stereo unspecified) | > 63.1 µM | > 63.1 µM | –
2 | N#Cc1ccc(C(O)C(F)(F)c2nc3ccccc3o2)cc1 (stereo unspecified) | > 200 µM | > 200 µM | –
3 | COc1cc(CC(=O)c2ccc3c(c2)OCO3)cc(OC)c1OC | > 204 µM | > 204 µM | –
4 | O=C(Nn1cnn2c(=O)c3ccccc3nc2c1=O)c1ccccc1 | > 200 µM | > 200 µM | –
5 | C=CCOC(=O)NC1C(OC(C)[C@@H](NC(=O)OCc2ccccc2)C(=O)OC(C)(C)C)OC(COC(C)=O)C(OC(C)=O)C1OC(C)=O (stereo partly specified) | > 200 µM | 28.8 µM | –
6 | CN1CCCN(C)CCCN(C)CCCN(C)CCC1 | > 100 µM | > 100 µM | –
7 | CCCCCN(CCCCC)C(=O)COc1cc2c(O)c3c(O)c(C)c4c(c13)C(=O)C(C)(O/C=C/C(OC)C(C)C(OC(C)=O)C(C)C(O)C(C)C(O)C(C)/C=C/C=C(\C)C(=O)N2)O4 (stereo unspecified) | > 200 µM | 7.76 µM | –
8 | Cc1ccc2c(c1)C(=C(C#N)C#N)CCCS2(=O)=O | > 200 µM | > 200 µM | –
9 | OCC(CCc1ccccc1I)C1=CCC2(CC1)OCCO2 (stereo unspecified) | > 200 µM | 34.7 µM | –
10 | Cc1ccc(-n2c(=S)[nH]c3ccc(Br)cc3c2=O)cc1 | > 269 µM | 89.1 µM | –
11 | COc1cc(C(=O)CC2(O)C(=O)Nc3c(Cl)cc(Cl)cc32)ccc1O (stereo unspecified) | > 468 µM | 91.2 µM | –
12 | Cc1ccc(/C(C#N)=C/c2cccc([N+](=O)[O-])c2)cc1 | > 200 µM | > 200 µM | –
13 | COc1cc(NS(=O)(=O)c2ccc(C)cc2)c2nccnc2c1 | > 204 µM | 77.6 µM | –
14 | COc1ccc(OC)c(NC(=O)C(=O)C(C(C)=O)c2nc3ccc(Cl)cc3[nH]c2=O)c1 (stereo unspecified) | > 81.3 µM | > 81.3 µM | –
15 | CC1=C(C)CC2(CCCCC2=O)S(=O)C1 (stereo unspecified) | > 1100 µM | 851 µM | –
16 | S=C(N/N=C(\C(=N/NC(=S)N1CCCCC1)c1ccccn1)c1ccccn1)N1CCCCC1 | > 200 µM | 39.8 µM | –
17 | O=C1NC2(O)c3ccccc3C(=O)C2(O)N1c1ccccc1 (stereo unspecified) | > 851 µM | 692 µM | –
18 | c1ccc(-c2cn3c(nc4ccccc43)c(-c3ccccc3)n2)cc1 | > 200 µM | 132 µM | –
19 | COc1cc(C(=C2SCCS2)c2nccc3cc(OC)c(OC)cc23)c([N+](=O)[O-])cc1OC | – | – | inactive
20 | CC1=NN(c2ccc(S(=O)(=O)O)cc2)/C(=N/NC(N)=S)C1 | > 759 µM | 427 µM | –
21 | CNC(=O)O/N=C/c1cccc(/C=N/OC(=O)NC)c1 | > 200 µM | > 200 µM | –

Row | SMILES | EC50 | IC50 | outcome
22 | O=C(NCCN1CCOCC1)c1ccc(I)cc1 | > 200 µM | > 200 µM | –
23 | O=C(Nc1ccccc1)Nc1ccccn1 | 166 µM | > 200 µM | –
24 | OCCN(CCO)c1ccc2ccc(N(CCO)CCO)nc2n1 | > 200 µM | 25.7 µM | –
25 | CON[N+]([O-])=NC(C)C | 195 µM | > 200 µM | –
26 | COc1ccc(C2=C(N)c3c(OC)cccc3C2=O)cc1 | > 200 µM | > 200 µM | –
27 | O=C1Nc2ncnn2C1=O | > 52.5 µM | > 52.5 µM | –
28 | Cc1ccccc1C=NC12CC3CC(CC(C3)C1)C2 | > 53.7 µM | > 53.7 µM | –
29 | CC(=O)[C-](C)C(C)=O.CC(=O)[C-](C)C(C)=O.NCCNCCNC(=O)c1cccc2nc3ccccc3nc12.[Cl-].[Co+3] | > 151 µM | 31.6 µM | –
30 | Cc1cnc([C@H]2CCC3[C@@H]4CC=C5C[C@@H](O)CC[C@]5(C)C4CC[C@@]32C)s1 (stereo partly specified) | > 67.6 µM | > 67.6 µM | –
31 | Cc1cc(C)nc(NS(=O)(=O)c2ccc(NNc3c4ccccc4nc4c(C(=O)Nc5ccc(S(N)(=O)=O)cc5)cccc34)cc2)n1 | > 200 µM | 11 µM | –
32 | Cn1cc2ccccc2c1-c1nc(F)nc(F)n1 | > 15.1 µM | > 15.1 µM | –
33 | CN1CCN(Cc2ccccc2)CC1CC#N (stereo unspecified) | 1.95 µM | > 200 µM | –
34 | COc1cccc2c(NCCC[N+](C)(C)[O-])c3c([N+](=O)[O-])ccc(OC)c3nc12 | > 200 µM | 1.32 µM | –
35 | CN(C)C(=NC#N)N(Cc1ccccc1)Cc1ccccc1 | > 200 µM | 112 µM | –
36 | CC(=O)O[C@@H]1C(=O)O[C@@H]2CO[C@H](c3ccccc3)O[C@H]12 | > 200 µM | > 200 µM | –
37 | O=C1O/C(=C(/Cl)c2cccc3ccccc23)c2ccccc21 | – | – | inactive
38 | CC[C@@]1(C[C@H]2C[C@@]3(C(=O)OC)c4[nH]c5ccccc5c4CCN3C2=S)COC2(CCCCC2)O1 | > 200 µM | > 200 µM | –
39 | COC1(OC)CC(CO)(CNc2cc(Cl)nc(N)n2)C1 | > 200 µM | > 200 µM | –
40 | CCP(CC)(c1ccccc1)=c1c(=O)c(Cl)c(Cl)c(=O)c1=O | > 200 µM | 27.5 µM | –
41 | COc1ccc2c(c1)CCc1[nH]c3ccccc3c1CCCC2 | > 61.7 µM | 57.5 µM | –
42 | Nc1nc(=O)n(C2CC(O)C(CO)O2)c2nc(-c3ccc(-c4ccccc4)cc3)cnc12 (stereo unspecified) | > 200 µM | > 200 µM | –

Row | SMILES | EC50 | IC50 | outcome
43 | O=C1NC(=O)c2ccccc2/C1=C/c1ccc2c(c1)OCO2 | > 200 µM | 2.09 µM | –
44 | CC1(C)CC(=O)c2c(nc3c(ccc4ccccc43)c2-c2ccc(NC(=O)CCCCCCCCC(=O)Nc3ccc(-c4c5c(nc6c4ccc4ccccc46)CC(C)(C)CC5=O)cc3)cc2)C1 | > 100 µM | > 100 µM | –
45 | N#Cc1ccc(C=C2C(=O)c3ccccc3C2=O)cc1 | > 72.4 µM | 46.8 µM | –
46 | Cc1ccn2c(c1)nc1nc3ccccc3nc12 | > 214 µM | 110 µM | –
47 | COc1ccc(Cl)cc1C(=O)c1cc(Cl)cc(S(=O)(=O)OC)c1OC | > 24.5 µM | > 24.5 µM | –
48 | Nc1ccn(C2CC(O)C(COP(O)(=S)OC3CC(n4ccc(N)nc4=O)OC3CO)O2)c(=O)n1 (stereo unspecified) | > 200 µM | > 200 µM | –
49 | CC(=O)c1c(C)nc(SSc2nc(C)c(C(C)=O)c(-c3ccc(Cl)cc3)c2C#N)c(C#N)c1-c1ccc(Cl)cc1 | > 200 µM | > 200 µM | –
50 | BrCCC[P+](c1ccccc1)(c1ccccc1)c1ccccc1 | > 20 µM | 0.912 µM | –
51 | O=C1C(Cl)N(c2cccc([N+](=O)[O-])c2)C1c1c[nH]c2ccccc12 (stereo unspecified) | > 105 µM | 5.01 µM | –
52 | CC(=O)OC1CC2C(C)(C)C(=O)C=C[C@]2(C)C2CCC3(C)C(c4ccoc4)OC(=O)[C@H]4O[C@]43[C@]12C (stereo partly specified) | – | – | inactive
53 | COC(=O)C1=C(C(=O)OC)P2(C)(C)SC(=S)N2C1(c1ccccc1)c1ccccc1 | > 200 µM | > 200 µM | –
54 | CN(C)c1cccc2c(S(=O)(=O)NCCN)cccc12 | > 200 µM | 174 µM | –
55 | COc1cc(/C=C/c2ccc(/C=C/c3cc(OC)c(OC)c(OC)c3)cc2)cc(OC)c1OC | – | – | inactive
56 | CCOC(=O)c1sc2c(C(=O)OCC)c3cc(C)ccn3c2c1N | – | – | inactive
57 | O=c1c(O)c(-c2ccccc2)oc2ccccc12 | > 93.3 µM | 18.6 µM | –
58 | CN(C(=O)C12C3C4C1C1C4(C(=O)C45C6C7C4C4C5C6C74C)C3C12C)C(C)(C)C (stereo unspecified) | – | – | inactive
59 | CC12C3C4C1C1C2C3C41CO (stereo unspecified) | > 200 µM | > 200 µM | –
60 | Cc1cccc2c(NCCN(C)C)c3cccc(C(=O)NCCN(C)C)c3nc12 | > 0.2 µM | 0.195 µM | –
61 | COC(=O)[C@H]1C(=CBr)[C@@H]1C(=O)OC.[C-]#[O+].[C-]#[O+].[C-]#[O+].[C-]#[O+].[Fe] | > 200 µM | > 200 µM | –
